{
  "source": "patent US20260306640A1",
  "about": "“TECHNOLOGIES TARGETING CELL STATES” (Auron Therapeutics, Inc., priority 2023, published 2026)",
  "key": {"[1]": {"tested_on": "microglial GSEA", "test": "Microglial GSEA in NEPC primary patient organoid", "type": "cell-based", "details": "both epithelial and neural components; FIG. 3 (F)", "description": "(§1) FIG. 3. Provided compounds can provide various activities. (A): Provided technologies can reduce KAT2A and KAT2B levels and histone acetylation levels. […] Cell viability (Cell Titer Glo) data relative to DMSO control after 7 days of treatment with compound 22 are presented as examples to confirm inhibition. GI50=5 nM. (C): Provided technologies can modulate cell states and induce differentiation. […] (D): Provided technologies can reduce KAT2A and KAT2B levels and histone acetylation levels including in neuroendocrine prostate cancer primary patient organoid. […] Concentrations are nM. […] Cell viability data relative to DMSO control after 21 days of treatment with compound 22 are presented as examples to confirm inhibition. GI50=3 nM. (F): Provided technologies can modulate cell states and induce differentiation."}, "[2]": {"tested_on": "LASCPC-01 cells", "test": "Cell growth inhibition, neuroendocrine prostate cancer line LASCPC-01 (Cell Titer Glo, day 7)", "type": "cell-based", "text": "(§2) Among other things, provided technologies are useful for treating various diseases, disorders, or conditions. For example, in some embodiments, provided technologies are useful for treating cancer as confirmed in the present Example. […] In some embodiments, provided technologies can inhibit cell proliferation. In some embodiments, the present disclosure provides technologies for assessing various technologies, e.g., compounds, compositions, or methods. Among other things, the present Example provides technologies, e.g., cell growth inhibition assay, for assessing various technologies. […] In some embodiments, the following cell growth inhibition methods are utilized to assess provided technologies.\nNeuroendocrine prostate cancer: Neuroendocrine prostate cancer line LASCPC-01 cells were cultured in DMEM F12 media with 5% FBS, 1% Penicillin/Streptomycin and HITES supplement (Hydrocortisone, Insulin, Transferrin, Estradiol and Sodium Selenite). Cells were plated at 1,425 cells/well of a 96 well plate. Compound and media were replenished every two days and at day 7 cell viability was assayed using Cell Titer Glo following manufacturer's instructions.\n(§3) In some assessments, for cell growth inhibition, cells, e.g., MOLM13, NCI-H1048, and LASCPC-01 cells, were counted using a hemocytometer or automated cell counting in triplicates. In some assessments, proliferation in NEPC organoids as measured with Cell Titer Glo reagent (Promega). Growth inhibition was determined relative to vehicle control."}, "[3]": {"tested_on": "neuroendocrine prostate cancer cells, e.g., LASCPC-01 cells", "test": "Differentiation GSEA signatures from RNA-Seq, LASCPC-01", "type": "cell-based", "details": "FIG. 3", "description": "In some embodiments, GSEA signatures are utilized for assessing cell states, differentiation, etc. In some assessments, differentiation GSEA signatures, e.g., from RNA-Seq was performed. A useful protocol is described herein as an example. In some assessments, LASCPC-01 cells, NEPC organoid cell pellets, or NCI-H1048 tumor pieces were flash frozen upon harvest and stored at −80° C. RNA was isolated, mRNA library was prepared (poly A enrichment) and sequencing was run. Reads were aligned to reference v38 using Kallis to generate gene count matrices for each sample. The gene count matrix was the input to the ML pipelines that generate normal atlas scores and cell state classification. It was also input to differential expression analysis using Edger in R. The output of differential expression was input to gene set enrichment analysis (GSEA) to define gene sets that were most shifted by treatment. For defining specific epithelial differentiation endpoints to generate the solid tumor differentiation box plots, cell state gene sets resulting from GSEA are consolidated by cell state to define a consensus set of genes that define epithelial differentiation. Other suitable technologies may also utilized in accordance with the present disclosure."}, "[4]": {"tested_on": "NCI-H1048 cells", "test": "Cell growth inhibition, SCLC cell line NCI-H1048 (cell count, day 11)", "type": "cell-based, human", "details": "for GI50: Homo sapiens", "text": "as §2\nSCLC: SCLC cell lines NCI-H1048 and NCI-H1876 were cultured in DMEM F12 media with 5% FBS, 1% Penicillin/Streptomycin and HITES supplement (Hydrocortisone, Insulin, Transferrin, Estradiol and Sodium Selenite). NCI-H1048 cells were plated at 10,000 cells/well of a 24-well plate and NCI-H1876 cells were plated at 20,000 cells/well of a 96-well plate. Compound and media were replenished every two days out to day 11 and 10 respectively. Cells were then trypsinized and counted using either hemocytometer or an automated Countess cell counter.\nas §3"}, "[5]": {"molecular_target": "T1, KAT2A (Homo sapiens, UniProt Q92830)", "T1 sequence (Q92830 whole entry)": "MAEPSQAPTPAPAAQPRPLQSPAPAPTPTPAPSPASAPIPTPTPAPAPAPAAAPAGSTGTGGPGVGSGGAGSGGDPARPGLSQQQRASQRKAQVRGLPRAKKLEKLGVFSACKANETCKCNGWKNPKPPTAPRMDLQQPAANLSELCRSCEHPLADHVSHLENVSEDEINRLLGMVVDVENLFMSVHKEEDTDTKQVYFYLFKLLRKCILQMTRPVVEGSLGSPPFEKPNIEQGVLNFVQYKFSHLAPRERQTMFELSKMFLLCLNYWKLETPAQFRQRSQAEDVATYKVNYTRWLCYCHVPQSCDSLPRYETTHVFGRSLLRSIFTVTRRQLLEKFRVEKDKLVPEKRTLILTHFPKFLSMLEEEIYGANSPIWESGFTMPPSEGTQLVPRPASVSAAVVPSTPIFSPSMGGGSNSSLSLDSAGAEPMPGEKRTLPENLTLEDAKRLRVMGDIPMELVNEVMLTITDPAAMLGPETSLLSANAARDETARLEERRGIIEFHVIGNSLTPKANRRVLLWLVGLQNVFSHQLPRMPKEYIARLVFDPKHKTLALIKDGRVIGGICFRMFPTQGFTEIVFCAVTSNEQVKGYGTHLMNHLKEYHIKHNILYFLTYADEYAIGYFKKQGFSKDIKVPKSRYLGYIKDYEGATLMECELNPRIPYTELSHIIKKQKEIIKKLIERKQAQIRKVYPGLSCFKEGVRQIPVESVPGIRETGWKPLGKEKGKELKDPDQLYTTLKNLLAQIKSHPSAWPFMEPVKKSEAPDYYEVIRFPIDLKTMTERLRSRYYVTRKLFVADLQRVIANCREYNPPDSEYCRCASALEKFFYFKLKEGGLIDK", "test": "Western blot of KAT2A level in NEPC primary patient organoid, 72 hours", "type": "cell-based", "design": "degrader, Western blot", "details": "FIG. 3 (D)", "description": "as §1"}, "[6]": {"molecular_target": "KAT2B (Homo sapiens, UniProt Q92831)", "sequence (Q92831 whole entry)": "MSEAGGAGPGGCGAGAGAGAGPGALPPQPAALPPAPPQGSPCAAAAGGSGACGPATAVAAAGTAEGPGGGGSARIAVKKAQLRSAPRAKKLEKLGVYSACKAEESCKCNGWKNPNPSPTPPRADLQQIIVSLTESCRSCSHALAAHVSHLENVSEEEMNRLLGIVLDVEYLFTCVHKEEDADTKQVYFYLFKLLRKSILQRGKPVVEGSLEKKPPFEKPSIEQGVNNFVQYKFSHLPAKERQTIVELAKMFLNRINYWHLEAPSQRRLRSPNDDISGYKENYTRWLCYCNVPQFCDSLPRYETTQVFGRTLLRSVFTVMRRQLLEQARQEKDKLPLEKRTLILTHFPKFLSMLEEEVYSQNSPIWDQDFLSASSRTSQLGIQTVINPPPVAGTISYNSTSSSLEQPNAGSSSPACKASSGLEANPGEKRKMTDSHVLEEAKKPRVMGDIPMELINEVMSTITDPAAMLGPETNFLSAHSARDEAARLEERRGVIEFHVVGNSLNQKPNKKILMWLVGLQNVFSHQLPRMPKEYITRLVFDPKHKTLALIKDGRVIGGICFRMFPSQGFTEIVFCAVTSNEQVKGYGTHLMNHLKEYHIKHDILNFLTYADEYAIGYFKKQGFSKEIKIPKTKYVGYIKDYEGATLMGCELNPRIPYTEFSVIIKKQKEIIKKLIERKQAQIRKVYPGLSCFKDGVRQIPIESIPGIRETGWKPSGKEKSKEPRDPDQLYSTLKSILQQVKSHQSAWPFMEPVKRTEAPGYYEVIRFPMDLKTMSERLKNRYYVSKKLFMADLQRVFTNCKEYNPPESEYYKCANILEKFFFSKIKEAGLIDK", "test": "Western blot of KAT2B level in NCI-H1048 cells, 24 h", "type": "cell-based", "design": "degrader, Western blot", "details": "various concentrations, FIG. 1 (B)", "description": "(§4) FIG. 1. Provided compounds can provide various activities including inhibiting tumor growth in vivo. (A): Provided compounds can inhibit tumor growth in vivo. Nude Balb/c mice were inoculated with NCI-H1048 cells in Matrigel. Tumors were allowed to grow up to about 200 mm^3 and mice were then randomized into two groups. Mice were dosed intraperitoneally (i.p.) once per week with vehicle or 30 mg/kg compound 22. Tumor size was measured every three to four days and mice were sacrificed once vehicle tumors reached 2000 mm^3. Error bar is SEM. Dosing started at day 17 post tumor inoculation. (B): Provided technologies can reduce KAT2A and KAT2B levels and histone acetylation levels. […] Vehicle is DMSO. […] Cell count data relative to DMSO control after 8 days of treatment with compound 22 are presented as examples to confirm inhibition. GI50=6 nM. (D): Provided technologies can inhibit tumor growth in vivo. Nude balb/c mice inoculated with H1048 tumors were dosed intraperitoneally once per week (qw i.p.) with vehicle (HbCD) or compound 22. Average tumor volumes+/−SEM from 6 mice are represented. […] See also (A). […] Certain body weights relative to starting weight are presented as examples to confirm tolerability and safety. (F): Provided technologies can reduce KAT2A and KAT2B levels and histone acetylation levels in tumor in vivo. […]"}, "[7]": {"molecular_target": "T1, KAT2A", "test": "Western blot of KAT2A level in NCI-H1048 cells, 24 h", "type": "cell-based", "design": "degrader, Western blot", "details": "various concentrations, FIG. 1 (B)", "description": "as §4"}},
  "note": "Like-named read-outs stand apart in the source and are kept apart here.",
  "data": [
    {"smiles": "CN1C[C@H](Nc2cnn(C)c(=O)c2Br)C[C@H](c2ccc(C(=O)N3CCC(CN4CCN(c5ccc6c(c5)CN(C5CCC(=O)NC5=O)C6=O)CC4)CC3)cc2)C1", "note": "(stereo partly drawn) [Compound 22, 3-(5-(4-((1-(4-((3R,5R)-5-((5-bromo-1-methyl-6-oxo-1,6-dihydropyridazin-4-yl)amino)-1-methylpiperidin-3-yl)benzoyl)piperidin-4-yl)methyl)piperazin-1-yl)-1-oxoisoindolin-2-yl)piperidine-2,6-dione]", "values": [
      {"measurement": "microglial GSEA", "setting": "[1]", "value": "significant upregulation"},
      {"measurement": "GI50", "setting": "[2]; 168 h, LASCPC-01, day 7, Cell Titer Glo, read-out: LASCPC GI50", "value": 5.3, "unit": "nM"},
      {"measurement": "GI50", "setting": "[2]; LASCPC-01, comparison table with Ref-1, read-out: Growth GI50", "value": 5, "unit": "nM"},
      {"measurement": "cell growth in vitro", "setting": "[2]; LASCPC-01 cells, FIG. 3", "value": "inhibit cell growth in vitro and in vivo"},
      {"measurement": "induction of differentiation", "setting": "[3]", "value": "induce differentiation (e.g., epithelial, neural, and/or microglial)"},
      {"measurement": "GI50", "setting": "[4]; 264 h, NCI-H1048, day 11, cell count, read-out: H1048 GI50", "value": 1, "unit": "nM"},
      {"measurement": "GI50", "setting": "[4]; NCI-H1048, comparison table with Ref-1, read-out: Growth GI50", "value": 1.5, "unit": "nM"},
      {"measurement": "cell growth in vitro", "setting": "[4]; NCI-H1048 cells, FIG. 1", "value": "inhibit cell growth in vitro and in vivo"},
      {"measurement": "reduction of KAT2A level", "setting": "[5]", "value": "confirmed such reductions"},
      {"measurement": "reduction of KAT2B level", "setting": "[6]", "value": "confirm such reduction"},
      {"measurement": "reduction of KAT2A level", "setting": "[7]", "value": "confirm such reduction"}
    ]}
  ]
}
